Measurements published in ChEMBL document CHEMBL3098008, “Lactam based 7-amino suberoylamide hydroxamic acids as potent HDAC inhibitors” (Bioorg Med Chem Lett, 2014).

What was measured:
[1] = molecular target: Histone deacetylase 1 (Homo sapiens, UniProt Q13547); assay: Inhibition of human HDAC1 using RHKK(Ac) as substrate by fluorimetric analysis
[2] = molecular target: Histone deacetylase 3/Nuclear receptor corepressor 2 (HDAC3/NCoR2) (Homo sapiens, UniProt O15379); assay: Inhibition of human HDAC3/NCOR2 using RHKK(Ac) as substrate by fluorimetric analysis; assay type: protein-complex assay
[3] = molecular target: T1, Polyamine deacetylase HDAC10 (Homo sapiens, UniProt Q969S8); assay: Inhibition of human HDAC10 using RHKK(Ac) as substrate by fluorimetric analysis
T1 sequence (Q969S8 whole entry): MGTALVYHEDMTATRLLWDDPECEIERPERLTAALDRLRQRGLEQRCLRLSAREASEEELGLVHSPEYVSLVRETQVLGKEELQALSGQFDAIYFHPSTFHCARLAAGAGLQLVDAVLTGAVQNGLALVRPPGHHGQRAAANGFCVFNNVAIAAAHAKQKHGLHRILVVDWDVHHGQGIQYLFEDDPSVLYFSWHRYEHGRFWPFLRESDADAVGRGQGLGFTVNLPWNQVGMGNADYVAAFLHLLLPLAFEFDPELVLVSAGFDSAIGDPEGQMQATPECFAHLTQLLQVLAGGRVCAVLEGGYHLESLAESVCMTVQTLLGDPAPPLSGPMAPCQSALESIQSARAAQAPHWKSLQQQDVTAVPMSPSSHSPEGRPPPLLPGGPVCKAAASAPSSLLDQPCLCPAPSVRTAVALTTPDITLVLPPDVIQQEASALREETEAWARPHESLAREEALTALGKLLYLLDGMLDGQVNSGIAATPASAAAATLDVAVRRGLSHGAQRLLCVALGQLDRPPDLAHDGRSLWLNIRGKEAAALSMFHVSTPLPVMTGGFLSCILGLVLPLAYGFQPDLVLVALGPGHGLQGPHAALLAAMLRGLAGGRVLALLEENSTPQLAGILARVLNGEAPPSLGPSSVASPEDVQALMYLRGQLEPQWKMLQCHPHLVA

[4] = Cytotoxicity against human H460 cells; assay type: functional, cell-based; settings: NCI-H460
[5] = molecular target: Histone deacetylase 2 (Homo sapiens, UniProt Q92769); assay: Inhibition of human HDAC2 using RHKK(Ac) as substrate by fluorimetric analysis
[6] = molecular target: T2, Histone deacetylase 11 (Homo sapiens, UniProt Q96DB2); assay: Inhibition of human HDAC11 using RHKK(Ac) as substrate by fluorimetric analysis
T2 sequence (Q96DB2 whole entry): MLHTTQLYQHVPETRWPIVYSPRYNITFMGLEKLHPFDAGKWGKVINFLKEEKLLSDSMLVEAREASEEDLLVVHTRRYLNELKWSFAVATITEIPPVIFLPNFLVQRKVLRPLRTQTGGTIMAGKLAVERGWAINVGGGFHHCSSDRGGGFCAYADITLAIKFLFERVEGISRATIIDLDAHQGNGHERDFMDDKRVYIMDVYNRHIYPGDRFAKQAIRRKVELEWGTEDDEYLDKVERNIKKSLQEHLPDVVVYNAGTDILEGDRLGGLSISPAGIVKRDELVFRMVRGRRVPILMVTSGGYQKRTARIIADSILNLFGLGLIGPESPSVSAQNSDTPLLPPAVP

[7] = molecular target: T3, Protein deacetylase HDAC6 (Homo sapiens, UniProt Q9UBN7); assay: Inhibition of human HDAC6 using RHKK(Ac) as substrate by fluorimetric analysis
T3 sequence (Q9UBN7 whole entry): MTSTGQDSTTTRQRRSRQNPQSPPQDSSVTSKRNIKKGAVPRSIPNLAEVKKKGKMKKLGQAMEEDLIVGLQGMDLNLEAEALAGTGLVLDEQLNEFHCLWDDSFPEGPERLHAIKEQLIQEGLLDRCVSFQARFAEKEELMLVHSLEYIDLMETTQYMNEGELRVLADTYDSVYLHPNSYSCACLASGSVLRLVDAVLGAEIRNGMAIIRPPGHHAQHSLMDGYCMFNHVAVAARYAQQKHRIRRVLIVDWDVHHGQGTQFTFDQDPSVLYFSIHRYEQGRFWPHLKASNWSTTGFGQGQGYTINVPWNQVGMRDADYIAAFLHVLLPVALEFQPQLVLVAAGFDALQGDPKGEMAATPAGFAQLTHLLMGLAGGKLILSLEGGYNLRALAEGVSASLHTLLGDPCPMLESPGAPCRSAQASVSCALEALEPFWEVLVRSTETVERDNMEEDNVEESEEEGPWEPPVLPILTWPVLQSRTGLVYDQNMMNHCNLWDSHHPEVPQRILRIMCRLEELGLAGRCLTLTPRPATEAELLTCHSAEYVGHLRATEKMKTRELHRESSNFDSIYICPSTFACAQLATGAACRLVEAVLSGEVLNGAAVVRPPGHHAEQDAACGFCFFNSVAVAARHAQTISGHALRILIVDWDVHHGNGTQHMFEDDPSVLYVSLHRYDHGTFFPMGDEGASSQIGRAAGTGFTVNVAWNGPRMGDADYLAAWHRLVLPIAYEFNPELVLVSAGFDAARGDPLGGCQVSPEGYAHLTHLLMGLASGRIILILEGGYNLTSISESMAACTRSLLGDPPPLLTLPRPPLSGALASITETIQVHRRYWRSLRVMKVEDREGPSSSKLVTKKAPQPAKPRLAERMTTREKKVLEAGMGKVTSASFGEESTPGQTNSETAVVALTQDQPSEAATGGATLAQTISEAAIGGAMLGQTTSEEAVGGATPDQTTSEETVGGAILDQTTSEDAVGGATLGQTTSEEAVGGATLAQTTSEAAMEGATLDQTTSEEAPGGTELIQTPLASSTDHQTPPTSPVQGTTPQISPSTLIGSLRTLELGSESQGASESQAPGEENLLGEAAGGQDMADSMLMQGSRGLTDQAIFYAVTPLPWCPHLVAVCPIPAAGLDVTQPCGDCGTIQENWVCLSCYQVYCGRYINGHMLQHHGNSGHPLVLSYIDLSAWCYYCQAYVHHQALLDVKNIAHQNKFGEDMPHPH

Histone deacetylase 3/Nuclear receptor corepressor 2 (HDAC3/NCoR2), sequence (O15379 whole entry): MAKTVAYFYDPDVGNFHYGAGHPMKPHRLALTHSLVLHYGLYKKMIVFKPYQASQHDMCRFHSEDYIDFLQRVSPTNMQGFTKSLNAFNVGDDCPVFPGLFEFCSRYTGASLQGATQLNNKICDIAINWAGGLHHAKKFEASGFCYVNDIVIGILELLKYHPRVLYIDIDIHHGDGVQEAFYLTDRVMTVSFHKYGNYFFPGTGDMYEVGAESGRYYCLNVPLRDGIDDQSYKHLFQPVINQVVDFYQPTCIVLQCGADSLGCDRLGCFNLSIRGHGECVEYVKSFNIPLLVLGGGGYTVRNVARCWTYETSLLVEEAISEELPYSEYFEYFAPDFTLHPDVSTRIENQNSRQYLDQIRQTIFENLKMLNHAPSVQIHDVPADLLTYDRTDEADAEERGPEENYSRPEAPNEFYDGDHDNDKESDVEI
Histone deacetylase 3/Nuclear receptor corepressor 2 (HDAC3/NCoR2), sequence (Q9Y618 whole entry, further chain): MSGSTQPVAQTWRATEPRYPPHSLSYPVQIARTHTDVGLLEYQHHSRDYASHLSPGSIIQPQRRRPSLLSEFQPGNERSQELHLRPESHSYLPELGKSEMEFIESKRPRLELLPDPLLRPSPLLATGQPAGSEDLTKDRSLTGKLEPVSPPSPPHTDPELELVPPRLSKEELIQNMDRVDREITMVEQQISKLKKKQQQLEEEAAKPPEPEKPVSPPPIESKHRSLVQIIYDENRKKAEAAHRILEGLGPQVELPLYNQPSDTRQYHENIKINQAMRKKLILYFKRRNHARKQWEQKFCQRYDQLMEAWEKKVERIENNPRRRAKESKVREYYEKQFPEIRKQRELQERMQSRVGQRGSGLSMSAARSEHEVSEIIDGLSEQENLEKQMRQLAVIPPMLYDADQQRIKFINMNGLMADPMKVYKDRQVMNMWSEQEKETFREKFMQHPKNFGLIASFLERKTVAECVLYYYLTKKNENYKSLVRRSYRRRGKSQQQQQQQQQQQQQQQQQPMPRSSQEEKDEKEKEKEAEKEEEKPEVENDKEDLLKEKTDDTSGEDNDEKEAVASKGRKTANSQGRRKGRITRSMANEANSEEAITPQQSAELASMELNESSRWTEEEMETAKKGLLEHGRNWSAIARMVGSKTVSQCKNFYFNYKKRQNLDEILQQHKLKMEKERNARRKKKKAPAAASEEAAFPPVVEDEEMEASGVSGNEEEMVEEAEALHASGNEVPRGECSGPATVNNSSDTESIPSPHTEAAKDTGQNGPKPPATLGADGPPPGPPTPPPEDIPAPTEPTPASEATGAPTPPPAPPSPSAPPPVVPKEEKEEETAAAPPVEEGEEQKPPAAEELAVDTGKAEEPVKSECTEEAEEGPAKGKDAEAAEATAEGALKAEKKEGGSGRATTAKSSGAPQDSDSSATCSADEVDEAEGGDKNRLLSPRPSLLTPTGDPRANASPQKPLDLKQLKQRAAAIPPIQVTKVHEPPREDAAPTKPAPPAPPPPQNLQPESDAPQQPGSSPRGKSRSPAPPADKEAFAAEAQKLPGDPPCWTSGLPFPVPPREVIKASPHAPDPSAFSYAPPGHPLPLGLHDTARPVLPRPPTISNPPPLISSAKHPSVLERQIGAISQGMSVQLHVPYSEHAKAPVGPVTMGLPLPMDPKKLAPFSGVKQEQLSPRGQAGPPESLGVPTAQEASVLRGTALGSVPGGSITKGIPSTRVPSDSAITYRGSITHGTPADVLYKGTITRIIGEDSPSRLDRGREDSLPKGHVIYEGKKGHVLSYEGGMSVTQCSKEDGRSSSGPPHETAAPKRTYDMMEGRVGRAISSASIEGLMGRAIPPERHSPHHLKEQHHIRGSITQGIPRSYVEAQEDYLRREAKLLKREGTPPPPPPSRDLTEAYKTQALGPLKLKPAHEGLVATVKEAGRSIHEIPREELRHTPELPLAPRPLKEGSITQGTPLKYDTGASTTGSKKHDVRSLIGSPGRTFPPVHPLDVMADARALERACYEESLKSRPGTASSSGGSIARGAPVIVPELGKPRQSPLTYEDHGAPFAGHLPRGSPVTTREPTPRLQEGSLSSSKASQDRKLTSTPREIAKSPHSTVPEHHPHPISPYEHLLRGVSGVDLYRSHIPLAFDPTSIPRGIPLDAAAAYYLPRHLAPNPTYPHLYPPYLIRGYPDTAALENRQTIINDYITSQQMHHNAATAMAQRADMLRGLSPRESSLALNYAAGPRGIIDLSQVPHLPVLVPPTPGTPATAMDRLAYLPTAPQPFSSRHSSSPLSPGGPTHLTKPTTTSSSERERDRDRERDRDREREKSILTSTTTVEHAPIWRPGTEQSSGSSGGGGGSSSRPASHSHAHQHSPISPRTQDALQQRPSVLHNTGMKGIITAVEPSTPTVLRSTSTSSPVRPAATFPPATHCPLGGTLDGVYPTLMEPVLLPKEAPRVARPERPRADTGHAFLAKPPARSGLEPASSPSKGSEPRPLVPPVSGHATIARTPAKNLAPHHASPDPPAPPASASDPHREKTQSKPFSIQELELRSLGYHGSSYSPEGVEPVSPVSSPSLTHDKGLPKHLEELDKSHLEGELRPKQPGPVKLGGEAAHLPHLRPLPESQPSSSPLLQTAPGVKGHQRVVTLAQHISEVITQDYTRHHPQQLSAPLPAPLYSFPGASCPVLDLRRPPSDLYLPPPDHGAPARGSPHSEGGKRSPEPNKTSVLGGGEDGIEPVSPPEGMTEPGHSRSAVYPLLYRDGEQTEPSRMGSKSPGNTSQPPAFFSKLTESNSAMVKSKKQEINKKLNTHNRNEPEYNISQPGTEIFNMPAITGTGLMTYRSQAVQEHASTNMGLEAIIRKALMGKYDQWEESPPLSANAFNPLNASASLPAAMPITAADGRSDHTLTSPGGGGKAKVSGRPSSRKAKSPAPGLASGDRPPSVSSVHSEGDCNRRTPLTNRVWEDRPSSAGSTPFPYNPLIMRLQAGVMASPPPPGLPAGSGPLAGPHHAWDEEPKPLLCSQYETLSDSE
Histone deacetylase 2, sequence (Q92769 whole entry): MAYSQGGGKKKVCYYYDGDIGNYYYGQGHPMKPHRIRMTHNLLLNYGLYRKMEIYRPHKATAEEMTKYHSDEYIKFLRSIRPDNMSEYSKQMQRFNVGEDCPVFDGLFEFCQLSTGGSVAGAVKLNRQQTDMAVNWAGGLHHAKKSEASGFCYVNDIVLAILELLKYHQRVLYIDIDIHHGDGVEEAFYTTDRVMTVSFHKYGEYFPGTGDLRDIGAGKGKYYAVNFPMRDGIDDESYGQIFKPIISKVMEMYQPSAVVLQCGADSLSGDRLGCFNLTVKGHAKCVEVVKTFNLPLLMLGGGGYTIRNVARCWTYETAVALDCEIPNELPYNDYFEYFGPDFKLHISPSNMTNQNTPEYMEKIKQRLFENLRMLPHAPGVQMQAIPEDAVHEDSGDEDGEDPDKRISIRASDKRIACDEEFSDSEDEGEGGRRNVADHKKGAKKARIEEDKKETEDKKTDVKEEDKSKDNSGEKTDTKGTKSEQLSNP
Histone deacetylase 1, sequence (Q13547 whole entry): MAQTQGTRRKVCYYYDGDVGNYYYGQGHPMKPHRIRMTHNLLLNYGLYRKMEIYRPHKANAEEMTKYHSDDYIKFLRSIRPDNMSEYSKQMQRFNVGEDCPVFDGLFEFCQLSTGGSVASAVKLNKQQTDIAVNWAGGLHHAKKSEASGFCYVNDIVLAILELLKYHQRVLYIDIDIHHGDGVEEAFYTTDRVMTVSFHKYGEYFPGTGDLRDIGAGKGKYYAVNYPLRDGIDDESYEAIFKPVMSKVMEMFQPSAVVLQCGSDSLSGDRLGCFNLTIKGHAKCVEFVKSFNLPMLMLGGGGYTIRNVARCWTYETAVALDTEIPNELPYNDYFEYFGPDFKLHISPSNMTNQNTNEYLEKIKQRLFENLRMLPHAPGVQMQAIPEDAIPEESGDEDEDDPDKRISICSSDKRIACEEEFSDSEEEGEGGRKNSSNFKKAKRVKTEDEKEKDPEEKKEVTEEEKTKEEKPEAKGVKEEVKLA

SMILES	IC50 [1] [nM]	IC50 [2] [nM]	IC50 [3] [nM]	IC50 [4] [nM]	IC50 [5] [nM]	IC50 [6] [nM]	IC50 [7] [nM]
O=C(CCCCC[C@H](NC(=O)[C@@H]1CC(=O)N1)C(=O)Nc1ccccc1)NO	34	62	113	2200	89	135	3
Cc1cccc(NC(=O)CCCCCCC(=O)NO)c1	197	216	503	800		1600	22
O=C(CCCCC[C@H](NC(=O)[C@H]1CCC(=O)N1)C(=O)Nc1ccccc1)NO	43	67	93	4000	142	75	8
O=C(CCCCC[C@H](NC(=O)[C@@H]1CCCC(=O)N1)C(=O)NCCc1ccccc1)NO	102	539	227	8200	956	262	8
Cc1cccc(NC(=O)[C@H](CCCCCC(=O)NO)NC(=O)[C@H]2CCC(=O)N2)c1	7	11	30.3	500	27	15.5	3
O=C(CCCCC[C@H](NC(=O)[C@@H]1CCCC(=O)N1)C(=O)NC1CCCC1)NO	1450	5660	6830	2400	5040	1440	31
O=C(CCCCCCC(=O)NC1CCCC1)NO	1790	3330	4890	21000	4390	2630	75
O=C(CCCCC[C@H](NC(=O)[C@H]1CCC(=O)N1)C(=O)NCCc1ccccc1)NO	77	144	210	4900	180	47.8	6
O=C(CCCCC[C@H](NC(=O)[C@@H]1CCCC(=O)N1)C(=O)Nc1ccccc1)NO	25	20	51	2500	89	47	5
O=C(CCCCCCC(=O)NCCc1ccccc1)NO	1140	3610	1350	18200	5160	1130	25
O=C(CCCCC[C@H](NC(=O)C1CCNC1=O)C(=O)Nc1ccccc1)NO (stereo not given in full)	72	74	147	4000	238	150	4
O=C(CCCCC[C@H](NC(=O)C1CCCNC1=O)C(=O)Nc1ccccc1)NO (stereo not given in full)	131	116	244	5100	689	255	19
O=C(CCCCC[C@H](NC(=O)[C@@H]1CCC(=O)N1)C(=O)Nc1ccccc1)NO	59	89	125	5400	143	37	6
Cc1ccc(NC(=O)[C@H](CCCCCC(=O)NO)NC(=O)[C@H]2CCC(=O)N2)cc1	32	66	163	600	93	127	4
O=C(CCCCCCC(=O)Nc1cccc(C(F)(F)F)c1)NO	63	185	374	2500	165	75.1	6
O=C(CCCCC[C@H](NC(=O)C1C(=O)NCC1c1ccccc1)C(=O)Nc1ccccc1)NO (stereo not given in full)	33	14	88	2400	110	70	4
Cc1ccc(NC(=O)CCCCCCC(=O)NO)cc1	200	452	649	4100	589	78.6	12
O=C(CCCCC[C@H](NC(=O)[C@H]1CCC(=O)N1)C(=O)Nc1cccc(C(F)(F)F)c1)NO	2	2	10.6	500	8	55.5	2
